Earlier results as cited in patent publication US20050004194A1, “Use of organic compounds” (priority 2003, published 2005).

Columns and labels:
[1] = SAVE trial, patients after MI, captopril versus placebo
[2] = elderly heart failure patients, losartan versus captopril 50 mg t.i.d.

Row | SMILES | left ventricular remodeling [1] | primary objective: tolerability and increase in serum creatinine [2] | all-cause mortality ([2]; 722 patients, based on only 49 deaths)
1 | C[C@H](CS)C(=O)N1CCC[C@H]1C(=O)O [captopril] | improvement | – | –
2 | CCCCc1nc(Cl)c(CO)n1Cc1ccc(-c2ccccc2-c2nn[nH]n2)cc1 [losartan] | – | no significant differences | statistically significant reduction
